Test results as given in US20040141995A1, “MHC class I-restricted and MHC class II-restricted EBNA1 peptides” (priority 2002, published 2004).
Read-outs that look alike come from different tables or passages of the source.

Columns and labels:
Type in all cases: cell-based, human
[1] = tested on: M3-W1-B9 CD8+ T cell recognition of HEK293/B8/EBNA1-GFP, LCL111 and 1359mel/EBNA1-GFP target cells; assay: Effect of inhibitors on M3W1-B9 CD8+ T cell recognition of EBNA1-expressing target cells (IFN-γ release); details: for dose dependence of inhibition of M3-W1-B9 CD8+ T cell recognition of HEK293/B8/EBNA1-GFP target cells: different concentrations of protease inhibitors (FIG. 14C); for effect on M3W1-B9 CD8+ T cell recognition of HEK293 transfected with HLA-B8 plus EBNA1-GFP: target cells treated with inhibitor, co-cultured with T cells overnight, IFN-γ release
Experimental: (§1) HEK 293 cells co-transfected with EBNA1-GFP were treated with various concentrations of ZAL inhibitor for 10 h. After washing, cells were incubated with T cells overnight for IFN-γ release assays. Various dilutions of DMSO were used as controls. T cell activity in the absence of inhibitor was used as 100% activity.
(§2) HLA-B8 expressing HEK293/EBNA1-GFP target cells were treated with an emetine inhibitor at three concentrations for 1h. After three washings, cells were co-cultured with M3-W1-B9 CD8^+ T cells overnight for IFN-γ release assays. […] HLA-B8 positive 1359 cells with the EBNA1-P518-526 peptide after the treatment of 1359mel cells were pulsed with 3 different concentration of emetine. FIG. 13B illustrates the determination of the sensitivity of recognition of TRP2-specific CD8 T cells to the treatment with emetine. 1363mel cells were treated with 3 different concentrations of emetine. After 3 washes, the cells were co-cultured with TRP2-specific CD8 ^+ T cells. The treated cells pulsed with a TRP2 peptide were used to examine the effect of emetine on recognition of MHC class I/TRP2 complexes on the cell surface; and
(§3) Target cells were incubated with various protease inhibitors for 2 h, washed and co-cultured with CD8^+ T cells overnight for IFN-γ release assays. Solvents used to solubilize inhibitors were also used as controls. […] Target cells were treated with different concentrations of protease inhibitors. After washes, the treated cells were co-cultured with M3-W1-B9 CD8^+ T cells overnight for IFN-γ release assays.
Target cells were incubated in the absence or presence of various concentrations of inhibitors for different period of time, depending on the type of inhibitors used. The cells were then washed and counted and co-cultured with T cells overnight for IFN-γ release assays. The solvents used to dissolve the inhibitors, such as DMSO, methanol and ethanol were also used as controls.
(§4) HEK293 cells were transfected with EBNA1-GFP and HLA-B8 cDNAs, and then treated them with different concentrations of ZAL and lactacystin, specific inhibitors of proteasomes. […] To exclude the potential nonspecific effect of ZAL on T cell recognition, the effects of ZAL inhibitor were tested on melanoma-reactive TIL102-CD4^+ T cells, which recognize a MHC class II-restricted epitope on the cell surface of 102mel tumor cells, and of P3-B7 CD4^+ T cells, which recognize HLA-DP3 expressing HEK293 cells transfected with Ii-EBNA1 as target cells. […] The effects of lactacystin, another specific proteasome inhibitor, were also tested on T cell recognition.
HLA-B8 expressing HEK293/EBNA1-GFP cells were treated with different concentrations of irreversible (emetine) and reversible (puromycin and cycloheximide) protein synthesis inhibitors for 1 h. After washing to remove inhibitors, the treated cells were co-cultured with antigen-specific CD8^+ T cells. […] Since blocking protein synthesis should rapidly decrease the peptide supply required for the export of MHC class I molecules from the ER to the cell surface as well as synthesis of MHC class I molecules, the treatment of cells with emetine would decrease the overall antigen presentation by MHC class I molecules.

[2] = tested on: 1359mel-specific CD8+ T cell recognition of 1359mel cells
Experimental: as §3
To test whether TPCK or AEBSF affected T cell recognition of other antigens, 1359mel were treated with the same concentrations of TPCK or AEBSF as described in FIG. 14A. […] AEBSF is an irreversible, specific inhibitor of serine proteases, while TPCK is an irreversible inhibitor of chymotrypsin and many other serine and cysteine proteases.

[3] = tested on: P3-B7 CD4+ T cell recognition of HEK293/DP3/Ii-EBNA1 target cells; assay: Effect of inhibitors on P3-B7 CD4+ T cell recognition of EBNA1 target cells; details: Homo sapiens, CD4+ T cell; 1 μM emetine; read-out: inhibition of EBNA1-specific P3-B7 CD4+ T cell recognition
Experimental: as §1, §4
HLA-B8 positive 1359mel cells were pulsed with the EBNA1-P518-526 peptide after the cells were treated with different concentrations of emetine and washed. […] 1363mel cells (TRP2^+ and HLA-A2^+) were treated with different concentrations of emetine, and then tested for their ability to stimulate TRP2-specific CD8^+ T cells. […]

[4] = tested on: TRP2-specific CD8+ T cell recognition of 1363mel cells; assay: Effect of emetine on recognition of 1363mel cells by TRP2-specific CD8+ T cells
Experimental: as §2
HLA-B8 positive 1359mel cells were pulsed with the EBNA1-P518-526 peptide after the cells were treated with different concentrations of emetine and washed. […] 1363mel cells (TRP2^+ and HLA-A2^+) were treated with different concentrations of emetine, and then tested for their ability to stimulate TRP2-specific CD8^+ T cells. […] However, there was only 30% inhibition of T cell recognition at 1 μM emetine treatment compared with over 90% inhibition of EBNA1-specific CD8^+ T cells at the same concentration of emetine (FIG. 13A). […] On the other hand, the processing and presentation of the TRP2 and CD4^+ T cell EBNA1 epitopes are less dependent on the production of short-lived DRiPs.

SMILES | dose dependence of inhibition of M3-W1-B9 CD8+ T cell recognition of HEK293/B8/EBNA1-GFP target cells [1] | effect on M3W1-B9 CD8+ T cell recognition of HEK293 transfected with HLA-B8 plus EBNA1-GFP ([1]; washed) | inhibition of recognition of 1359mel cells by 1359mel-specific CD8+ T cells ([2]; same inhibitor concentrations as FIG. 14A) | inhibition of recognition of 1359mel cells by 1359mel-specific CD8+ T cells [2] | inhibition of M3W1-B9 CD8+ T cell recognition of HLA-B8 expressing HEK293/EBNA1-GFP target cells ([1]; 5 μM inhibitor for 1 h) | inhibition at 1 µM ([1]; Homo sapiens, T-cell, 1 h, 1 μM inhibitor for 1 h, read-out: inhibition of M3W1-B9 CD8+ T cell recognition of HLA-B8 expressing HEK293/EBNA1-GFP target cells) [%] | effect on T cell recognition of 1359mel cells pulsed with EBNA1-P518-526 peptide after inhibitor treatment ([1]; different concentrations of emetine, washed, then peptide-pulsed) | inhibition at 1 µM [3] [%] | effect on T cell recognition of TRP2 peptide-pulsed target cells after inhibitor treatment [4] | inhibition at 1 µM ([4]; Homo sapiens, T-cell, 1 μM emetine, read-out: inhibition of recognition of 1363mel target cells by TRP2-specific CD8+ T cells) [%] | concentration dependence of inhibition of recognition of 1363mel target cells by TRP2-specific CD8+ T cells ([4]; different concentrations of emetine)
NCCc1ccc(S(=O)(=O)F)cc1 [AEBSF] | in a dose-dependent manner | significantly blocked | No inhibition | – | – | – | – | – | – | – | –
Cc1ccc(S(=O)(=O)N[C@@H](Cc2ccccc2)C(=O)CCl)cc1 [TPCK] | in a dose-dependent manner | significantly blocked | – | No inhibition | – | – | – | – | – | – | –
CC[C@H]1CN2CCc3cc(OC)c(OC)cc3[C@@H]2C[C@@H]1C[C@H]1NCCc2cc(OC)c(OC)cc21 [emetine] | – | – | – | – | completely inhibited | 94 | slightly inhibited | 20 | slightly inhibited | 30 | increased with the increasing concentrations
